In patent US9221795B2, “Phosphatidylinositol 3-kinase inhibitors” (Gilead Sciences, Inc., priority 2013, dated 2015):

Tests used:
[1] = molecular target: PI3Kδ (Homo sapiens (Human), UniProt O00329); experiment: Enzymatic activity of PI3K isoforms, TR-FRET assay (PI3Kδ); assay type: biochemical; conditions: 2× Km ATP, geometric mean if more than one value
Procedure, shortened: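 Recombinant heterodimeric PI3Kβ or PI3Kδ (25-50 pM) was run with 2 μM PIP2 and 2× Km ATP (75-500 μM) at pH 7.4, for 30 min at 25° C. PIP3 formation was detected by TR-FRET displacement of labeled PIP3 from Eu-GRP-1. IC50 values in nM come from four-parameter fits, as geometric means.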

[2] = molecular target: PI3Kβ (Homo sapiens (Human), UniProt P42338); experiment: Enzymatic activity of PI3K isoforms, TR-FRET assay (PI3Kβ); assay type: biochemical; conditions: 2× Km ATP, geometric mean if more than one value
PI3Kβ, sequence (P42338 whole entry, the tested form may be a part, canonical isoform): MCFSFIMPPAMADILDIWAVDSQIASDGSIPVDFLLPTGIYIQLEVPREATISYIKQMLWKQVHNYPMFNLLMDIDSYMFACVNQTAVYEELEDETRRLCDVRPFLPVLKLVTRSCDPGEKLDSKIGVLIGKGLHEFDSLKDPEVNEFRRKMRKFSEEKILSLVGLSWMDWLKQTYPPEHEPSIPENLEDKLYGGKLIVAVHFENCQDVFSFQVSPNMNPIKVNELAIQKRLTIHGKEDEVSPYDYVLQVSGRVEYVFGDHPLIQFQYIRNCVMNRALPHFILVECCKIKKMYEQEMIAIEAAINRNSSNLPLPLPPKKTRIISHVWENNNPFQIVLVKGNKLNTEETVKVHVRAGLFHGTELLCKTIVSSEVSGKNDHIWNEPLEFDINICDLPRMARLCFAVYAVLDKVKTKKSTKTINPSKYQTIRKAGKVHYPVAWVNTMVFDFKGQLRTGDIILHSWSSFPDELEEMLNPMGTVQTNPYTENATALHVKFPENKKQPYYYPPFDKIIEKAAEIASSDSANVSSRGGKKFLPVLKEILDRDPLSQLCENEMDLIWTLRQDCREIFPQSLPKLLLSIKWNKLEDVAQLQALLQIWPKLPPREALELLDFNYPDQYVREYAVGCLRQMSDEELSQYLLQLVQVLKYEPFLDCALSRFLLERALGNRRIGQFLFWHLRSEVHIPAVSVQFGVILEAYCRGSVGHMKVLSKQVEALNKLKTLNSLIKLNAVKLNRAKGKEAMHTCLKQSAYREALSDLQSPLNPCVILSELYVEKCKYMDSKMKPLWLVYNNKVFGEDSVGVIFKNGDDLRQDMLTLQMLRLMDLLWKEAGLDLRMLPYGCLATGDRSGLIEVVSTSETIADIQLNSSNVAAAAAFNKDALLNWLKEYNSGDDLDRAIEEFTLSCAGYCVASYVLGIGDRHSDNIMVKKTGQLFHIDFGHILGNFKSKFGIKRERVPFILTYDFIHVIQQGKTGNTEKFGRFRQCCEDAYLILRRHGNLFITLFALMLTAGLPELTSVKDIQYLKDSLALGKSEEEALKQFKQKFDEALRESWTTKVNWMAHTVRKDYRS
PI3Kβ, sequence (P27986 whole entry partner, the tested form may be a part, canonical isoform): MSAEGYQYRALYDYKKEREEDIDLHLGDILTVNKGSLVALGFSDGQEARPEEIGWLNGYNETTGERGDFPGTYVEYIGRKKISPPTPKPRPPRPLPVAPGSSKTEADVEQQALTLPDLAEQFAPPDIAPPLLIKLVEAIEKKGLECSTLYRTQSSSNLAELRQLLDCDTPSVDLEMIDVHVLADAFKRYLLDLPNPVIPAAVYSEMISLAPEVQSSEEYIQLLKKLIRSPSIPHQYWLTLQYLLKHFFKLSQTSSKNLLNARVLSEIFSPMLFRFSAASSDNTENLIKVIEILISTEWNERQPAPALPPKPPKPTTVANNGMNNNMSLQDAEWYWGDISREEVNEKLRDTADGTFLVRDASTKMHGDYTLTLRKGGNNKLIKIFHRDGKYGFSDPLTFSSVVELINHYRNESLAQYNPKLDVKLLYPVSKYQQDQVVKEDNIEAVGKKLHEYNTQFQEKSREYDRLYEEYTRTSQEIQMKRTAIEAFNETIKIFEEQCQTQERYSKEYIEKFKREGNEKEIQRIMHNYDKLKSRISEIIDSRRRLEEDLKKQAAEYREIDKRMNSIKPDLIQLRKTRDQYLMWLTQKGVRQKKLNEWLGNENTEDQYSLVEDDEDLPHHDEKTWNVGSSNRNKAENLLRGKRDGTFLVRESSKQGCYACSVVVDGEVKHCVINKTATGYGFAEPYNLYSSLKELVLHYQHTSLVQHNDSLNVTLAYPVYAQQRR
Description: Enzymatic activity of the class I PI3K isoforms in the presence of the compounds of Table 1 and Compounds X, Y and Z was measured using a time-resolved fluorescence resonance energy transfer (TR-FRET) assay. The TR-FRET assay was used to monitor formation of the product 3,4,5-inositol triphosphate molecule (PIP3) as it competed with fluorescently labeled PIP3 for binding to the GRP-1 pleckstrin homology domain protein. An increase in […] product results in a decrease in TR-FRET signal as the labeled fluorophore is displaced from the GRP-1 protein binding site.
Class I PI3K isoforms were expressed and purified as heterodimeric recombinant proteins. All assay reagents and buffers for the TR-FRET assay were purchased from Millipore. PI3K isoforms were assayed under initial rate conditions in the presence of 25 mM Hepes (pH 7.4), and 2× Km ATP (75-500 μM), 2 μM PIP2, 5% glycerol, 5 mM MgCl2, 50 mM NaCl, 0.05% (v/v) Chaps, 1 mM dithiothreitol, 1% (v/v) DMSO at the following concentrations for each isoforms: PI3Kα, PI3Kβ, and PI3Kδ between 25 and 50 pM, and PI3Kγ at 2 nM. After an assay reaction time of 30 minutes at 25° C., reactions were terminated with a final concentration of 10 mM EDTA, 10 nM labeled-PIP3, and 35 nM Europium labeled GRP-1 detector protein before reading TR-FRET on an Envision plate reader (Ex: 340 nm; Em: 615/665 nm; […] delay and 500 μs read window).
Data were normalized based on positive ([…] wortmanin) and negative (DMSO) controls. α, β, δ, and γ IC50 values were calculated from the fit of the dose-response curves to a four-parameter equation. All IC50 values represent geometric mean values if more than one value was obtained. IC50 values were reported in units of nM.

[3] = Hepatocyte stability (parent drug disappearance in cryopreserved hepatocytes); assay type: in vitro ADME, human; conditions: human, cryopreserved human hepatocytes, 2 μM substrate, 37° C.; Table 2a
Procedure, shortened: (§1)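 Test article at 2 μM incubated in duplicate with 1 million hepatocytes/mL at 37 °C, 5% CO2, humidified. Parent loss tracked by LC/MS at 0, 1, 2 and 4 h, giving half-life (t1/2) in hours.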

[4] = test system: basophils; experiment: Basophil activation in human whole blood (Flow2 CAST kit, CD63 flow cytometry); assay type: cell-based; conditions: Homo sapiens, human whole blood, basophils activated with anti-FcεRI mAb or fMLP, percent CD63 positive cells
[5] = test system: cryopreserved human hepatocytes; experiment: Hepatocyte stability (parent drug disappearance in cryopreserved hepatocytes); assay type: in vitro ADME; conditions: human hepatocytes, 2 μM substrate, 37° C.
Procedure, shortened: as §1

PI3Kδ, sequence (O00329 whole entry, canonical isoform): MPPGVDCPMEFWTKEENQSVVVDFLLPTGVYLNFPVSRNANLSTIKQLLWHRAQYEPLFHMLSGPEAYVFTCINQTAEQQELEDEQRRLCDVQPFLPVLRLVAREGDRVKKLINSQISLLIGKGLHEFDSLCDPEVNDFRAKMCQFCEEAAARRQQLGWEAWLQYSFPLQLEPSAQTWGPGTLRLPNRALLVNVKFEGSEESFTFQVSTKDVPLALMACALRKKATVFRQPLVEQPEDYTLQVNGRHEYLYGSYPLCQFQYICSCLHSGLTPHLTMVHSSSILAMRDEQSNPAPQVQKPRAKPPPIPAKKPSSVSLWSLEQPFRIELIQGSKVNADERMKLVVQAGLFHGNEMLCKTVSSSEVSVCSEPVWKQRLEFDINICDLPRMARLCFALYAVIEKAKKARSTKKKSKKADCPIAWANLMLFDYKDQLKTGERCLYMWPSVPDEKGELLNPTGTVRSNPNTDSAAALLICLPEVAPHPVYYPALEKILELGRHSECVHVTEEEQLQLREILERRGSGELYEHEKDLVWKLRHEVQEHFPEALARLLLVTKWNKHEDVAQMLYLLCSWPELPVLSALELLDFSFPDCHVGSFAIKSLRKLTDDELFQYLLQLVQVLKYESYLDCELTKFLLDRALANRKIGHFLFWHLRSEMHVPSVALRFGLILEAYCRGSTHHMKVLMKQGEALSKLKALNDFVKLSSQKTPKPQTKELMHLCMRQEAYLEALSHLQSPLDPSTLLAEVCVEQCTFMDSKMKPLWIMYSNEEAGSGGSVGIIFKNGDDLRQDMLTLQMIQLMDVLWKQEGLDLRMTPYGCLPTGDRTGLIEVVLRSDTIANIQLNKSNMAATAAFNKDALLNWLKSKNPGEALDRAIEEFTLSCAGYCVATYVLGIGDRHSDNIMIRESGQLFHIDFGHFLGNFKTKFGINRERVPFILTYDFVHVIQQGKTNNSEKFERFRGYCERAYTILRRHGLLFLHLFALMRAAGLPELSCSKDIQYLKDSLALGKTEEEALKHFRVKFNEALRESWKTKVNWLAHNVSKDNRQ
PI3Kδ, sequence (P27986 whole entry partner, canonical isoform): as the sequence (P27986 whole entry partner, the tested form may be a part, canonical isoform) above

An IC50 [1] of 3 nM, an IC50 [2] of 9 nM and a half-life at 2 μM [3] greater than 10 h were found for `C[C@H](Nc1nc(N)nc(N)c1Cl)c1nc2cccc(Cl)c2c(=O)n1-c1ccc(N)nc1` [Compound 85, (S)-3-(6-aminopyridin-3-yl)-5-chloro-2-(1-((2,6-diamino-5-chloropyrimidin-4-yl)amino)ethyl)quinazolin-4(3H)-one] in this work.

An IC50 [1] of 5 nM, an IC50 [2] of 5 nM and a half-life at 2 μM [3] greater than 10 h were found for `C[C@H](Nc1nc(N)nc(N)c1C#N)c1nc2c(Cl)cc(F)cc2c(=O)n1-c1ccc(N)nc1` [Compound 82, (S)-2,4-diamino-6-((1-(3-(6-aminopyridin-3-yl)-8-chloro-6-fluoro-4-oxo-3,4-dihydroquinazolin-2-yl)ethyl)amino)pyrimidine-5-carbonitrile] in this work.

An IC50 [1] of 0.6 nM, an IC50 [2] of 0.8 nM and a half-life at 2 μM [3] greater than 10 h were found for `CC[C@H](Nc1nc(N)nc(N)c1C#N)c1nc2cccc(Cl)c2c(=O)n1-c1ccc(N)nc1` [Compound 87, (S)-2,4-diamino-6-((1-(3-(6-aminopyridin-3-yl)-5-chloro-4-oxo-3,4-dihydroquinazolin-2-yl)propyl)amino)pyrimidine-5-carbonitrile] in this work.

An IC50 [1] of 0.8 nM, an IC50 [2] of 0.7 nM and a half-life at 2 μM [3] greater than 10 h were found for `C[C@H](Nc1nc(N)nc(N)c1C#N)c1nc2cccc(Cl)c2c(=O)n1-c1ccc(N)nc1` [Compound 97, (S)-2,4-diamino-6-((1-(3-(6-aminopyridin-3-yl)-5-chloro-4-oxo-3,4-dihydroquinazolin-2-yl)ethyl)amino)pyrimidine-5-carbonitrile] in this work.

An IC50 [1] of 6 nM, an IC50 [2] of 11 nM and a half-life at 2 μM [3] greater than 10 h were found for `C[C@H](Nc1nc(N)nc(N)c1Cl)c1nc2c(F)ccc(Cl)c2c(=O)n1-c1ccc(N)nc1` [Compound 88, (S)-3-(6-aminopyridin-3-yl)-5-chloro-2-(1-((2,6-diamino-5-chloropyrimidin-4-yl)amino)ethyl)-8-fluoroquinazolin-4(3H)-one] in this work.

An IC50 [1] of 1 nM, an IC50 [2] of 3 nM and a half-life at 2 μM [3] of 4 h were found for `Cc1cc(N)ncc1-n1c([C@H](C)Nc2nc(N)nc(N)c2C#N)nc2c(Cl)ccc(Cl)c2c1=O` (atropisomer, axis not shown) [Compound 96, (S)-2,4-diamino-6-((1-(3-(6-amino-4-methylpyridin-3-yl)-5,8-dichloro-4-oxo-3,4-dihydroquinazolin-2-yl)ethyl)amino)pyrimidine-5-carbonitrile] in this work.

An IC50 [1] of 0.5 nM, an IC50 [2] of 1 nM and a half-life at 2 μM [3] of 10 h were found for `Cc1cc(N)ncc1-n1c([C@H](C)Nc2nc(N)nc(N)c2C#N)nc2cccc(Cl)c2c1=O` (atropisomer, axis not shown) [Compound 94, (S)-2,4-diamino-6-((1-(3-(6-amino-4-methylpyridin-3-yl)-5-chloro-4-oxo-3,4-dihydroquinazolin-2-yl)ethyl)amino)pyrimidine-5-carbonitrile] in this work.

An IC50 [1] of 0.6 nM and an IC50 [2] of 33 nM were found for `C[C@H](Nc1nc(N)nc(N)c1C#N)c1nc2cccc(Cl)c2c(=O)n1-c1cncc(N)c1` [Compound 108, (S)-2,4-diamino-6-((1-(3-(5-aminopyridin-3-yl)-5-chloro-4-oxo-3,4-dihydroquinazolin-2-yl)ethyl)amino)pyrimidine-5-carbonitrile] in this work.

An IC50 [1] of 15 nM and an IC50 [2] of 62 nM were found for `CCC[C@H](Nc1nc(N)nc(N)c1Cl)c1nc2cccc(Cl)c2c(=O)n1-c1ccc(N)nc1` [Compound 102, (S)-3-(6-aminopyridin-3-yl)-5-chloro-2-(1-((2,6-diamino-5-chloropyrimidin-4-yl)amino)butyl)quinazolin-4(3H)-one] in this work.

An IC50 [1] of 94 nM and an IC50 [2] of 530 nM were found for `CCC[C@H](Nc1nc(N)nc(N)c1Cl)c1nc2ccc(F)c(Cl)c2c(=O)n1-c1ccc(N)nc1` [Compound 104, (S)-3-(6-aminopyridin-3-yl)-5-chloro-2-(1-((2,6-diamino-5-chloropyrimidin-4-yl)amino)butyl)-6-fluoroquinazolin-4(3H)-one] in this work.

An IC50 [1] of 4 nM and an IC50 [2] of 99 nM were found for `CC[C@H](Nc1nc(N)nc(N)c1C#N)c1nc2cccc(Cl)c2c(=O)n1-c1cnc(N)cc1C` (atropisomer, axis not shown) [Compound 91, (S)-2,4-diamino-6-((1-(3-(6-amino-4-methylpyridin-3-yl)-5-chloro-4-oxo-3,4-dihydroquinazolin-2-yl)propyl)amino)pyrimidine-5-carbonitrile] in this work.

An IC50 [1] of 4 nM and an IC50 [2] of 28 nM were found for `Cc1cc(N)ncc1-n1c([C@H](C)Nc2nc(N)nc(N)c2C#N)nc2c(Cl)ccc(Cl)c2c1=O` (atropisomer, axis not shown) [Compound 95, (S)-2,4-diamino-6-((1-(3-(6-amino-4-methylpyridin-3-yl)-5,8-dichloro-4-oxo-3,4-dihydroquinazolin-2-yl)ethyl)amino)pyrimidine-5-carbonitrile] in this work.

An IC50 [1] of 1 nM and an IC50 [2] of 3 nM were found for `CCC[C@H](Nc1nc(N)nc(N)c1C#N)c1nc2cccc(Cl)c2c(=O)n1-c1ccc(N)nc1` [Compound 103, (S)-2,4-diamino-6-((1-(3-(6-aminopyridin-3-yl)-5-chloro-4-oxo-3,4-dihydroquinazolin-2-yl)butyl)amino)pyrimidine-5-carbonitrile] in this work.

An IC50 [1] of 31 nM and an IC50 [2] of 180 nM were found for `Nc1ccc(-n2c([C@@H](Nc3nc(N)nc(N)c3Cl)C3CC3)nc3c(F)ccc(Cl)c3c2=O)cn1` [Compound 106, (S)-3-(6-aminopyridin-3-yl)-5-chloro-2-(cyclopropyl((2,6-diamino-5-chloropyrimidin-4-yl)amino)methyl)-8-fluoroquinazolin-4(3H)-one] in this work.

An IC50 [1] of 9 nM and an IC50 [2] of 27 nM were found for `Nc1ccc(-n2c([C@@H](Nc3nc(N)nc(N)c3Cl)C3CC3)nc3cccc(Cl)c3c2=O)cn1` [Compound 89, (S)-3-(6-aminopyridin-3-yl)-5-chloro-2-(cyclopropyl((2,6-diamino-5-chloropyrimidin-4-yl)amino)methyl)quinazolin-4(3H)-one] in this work.

An IC50 [1] of 640 nM and an IC50 [2] of 3600 nM were found for `Cc1cc(N)ncc1-n1c([C@@H](Nc2nc(N)nc(N)c2C#N)C2CC2)nc2c(Cl)ccc(Cl)c2c1=O` (atropisomer, axis not shown) [Compound 99, (S)-2,4-diamino-6-(((3-(6-amino-4-methylpyridin-3-yl)-5,8-dichloro-4-oxo-3,4-dihydroquinazolin-2-yl)(cyclopropyl)methyl)amino)pyrimidine-5-carbonitrile] in this work.

An IC50 [1] of 84 nM and an IC50 [2] of 180 nM were found for `C[C@H](Nc1nc(N)nc(N)c1Cl)c1nc2c(Cl)cc(F)cc2c(=O)n1-c1ccc(N)nc1` [Compound 81, (S)-3-(6-aminopyridin-3-yl)-8-chloro-2-(1-((2,6-diamino-5-chloropyrimidin-4-yl)amino)ethyl)-6-fluoroquinazolin-4(3H)-one] in this work.

An IC50 [1] of 0.8 nM, an IC50 [2] of 1 nM and a half-life at 2 μM [3] of 4 h were found for `CC[C@H](Nc1nc(N)nc(N)c1C#N)c1nc2cccc(Cl)c2c(=O)n1-c1cnc(N)cc1C` (atropisomer, axis not shown) [Compound 92, (S)-2,4-diamino-6-((1-(3-(6-amino-4-methylpyridin-3-yl)-5-chloro-4-oxo-3,4-dihydroquinazolin-2-yl)propyl)amino)pyrimidine-5-carbonitrile] in this work.

An IC50 [1] of 0.5 nM, an IC50 [2] of 1 nM and a half-life at 2 μM [3] of 10 h were found for `C[C@H](Nc1nc(N)nc(N)c1C#N)c1nc2c(Cl)ccc(Cl)c2c(=O)n1-c1ccc(N)nc1` [Compound 84, (S)-2,4-diamino-6-((1-(3-(6-aminopyridin-3-yl)-5,8-dichloro-4-oxo-3,4-dihydroquinazolin-2-yl)ethyl)amino)pyrimidine-5-carbonitrile] in this work.

An IC50 [1] of 0.5 nM, an EC50 ([4]; class symbol) of less than 1 nM and an EC50 ([4]; geometric mean) of 0.4 nM were found for `Cc1c(F)cncc1-n1c([C@H](C)Nc2nc(N)nc(N)c2C#N)nc2cccc(Cl)c2c1=O` (atropisomer, axis not shown) [Compound 47, (S)-2,4-diamino-6-(1-(5-chloro-3-(5-fluoro-4-methylpyridin-3-yl)-4-oxo-3,4-dihydroquinazolin-2-yl)ethylamino)pyrimidine-5-carbonitrile] in this work. The t1/2 ([5]; class symbol) was “***** (***** = >10 h)” and the “t1/2” value ([5]; Table 3) was greater than 10 h.
